One data set concerns S. typhimurium TA100. In words: Ames test, His+ reversion, tester strain TA100. The method, then: (§1) S. typhimurium strain of Ames test, TA98 and TA, were purchased and grown following manufacture's instruction (Xenometrix AG, Switzerland). CH4001 and CH4003 strains carrying EGFP^mut DNA on their chromosomes (Table 1) were created as described in Result section.
(§2) The plate-incorporation assay was carried out as described (OECD, 1997). Briefly, bacterial cells from stock cultures were grown for 12 hr in liquid medium at 37° C. A volume of 0.1 mL bacterial suspension was added to 2 mL of top agar (Difco) medium containing 0.6% agar, 0.6% NaCl and 20.96 μg of l-histidine and d-biotin (Sigma). Test solution (or solvent control, or positive control agent) and the S9-mix (0.5 mL/plate; 10% (v/v) S9) or potassium phosphate buffer (0.5 mL/plate; 0.2 M, pH 7.4; Sigma) were also added to the top agar which was then mixed and poured onto the top of Vogel-Bonner minimal medium agar plates (3 replicates/dose for the treated and 6 replicates for the solvent control). Colonies were counted 48 hr after incubation at 37° C. The highest volume of the test solution added per plate was initially limited to 100 μL, and then increased up to 200 μL in confirmation studies.
We tested mutation frequency of these two strains together with conventional Ames test strains, TA100 and TA98, in the presence of mutagens, ENU and ICR191. […]

In data set [1] the test system is CH4003 (TA98 carrying EGFP^mut3 on chromosome). In words: His+ reversion, strain CH4003. The settings on record: for Number of revertants, EGFP^mut2 TA98, phenotype His^+: total 10^6 bacteria plated on minimal media plates. Here is the method: (§3) The EGFP^mut DNA was inserted into the chromosome of Salmonella typhimurium LT2 strain via its putA site approximately 5 minutes away from the termination (ter) region of the chromosome (Elliott, 1992). lacP-EGFP^mut::CAT DNA was amplified with primers that contain sequences for the putA site of S. enterica serovar Typhimurium: 5′-primer […] […] […], which consisted of 50-nt or 55-nt of putA (putA sequences are underlined) and 25-nt or 22-nt sequences flaking lacP-nonEGFP::cat using pEGFP^mut::CAT plasmid as template. The 1.4-kbp PCR products were purified and transformed into bacteria carrying a Red helper plasmid (pKD46) by electroporation (Datsenko and Wanner, 2000). The Linear DNA contained a chloramphenicol gene as a marker for the P22 transduction into the S. typhimurium strain of Ames test, TA100 and TA98 to construct CH4001 and 4003, respectively (Davis, et al., 1980).
as §2
Subsequently, the gene for EGFP^mut was placed in the chromosome of relevant Salmonella typhimurium to establish mutation test strains analogous to that of Ames test. […]

The subject of data set [2] is CH4001 (TA100 carrying EGFP^mut1 on chromosome). In words: His+ reversion, strain CH4001. Here is the method: as §3
The plate-incorporation assay was carried out as described (OECD, 1997). Briefly, bacterial cells from stock cultures were grown for 12 hr in liquid medium at 37° C. A volume of 0.1 mL bacterial suspension was added to 2 mL of top agar (Difco) medium containing 0.6% agar, 0.6% NaCl and 20.96 μg of l-histidine and d-biotin (Sigma). […] Colonies were counted 48 hr after incubation at 37° C. […]

The test system of another data set is S. typhimurium TA98. In words: Ames test, His+ reversion, tester strain TA98. The settings on record: for Number of revertants, TA98, phenotype His^+: total 10^6 bacteria plated on minimal media plates. Here is the method:
as §1, §2
(§4) We tested mutation frequency of these two strains together with conventional Ames test strains, TA100 and TA98, in the presence of mutagens, ENU and ICR191. ENU is known to induce base-pair substitution while ICR191 frameshift mutation (OECD, 1997). His^+ revertants were selected on minimal plates and EGFP^+ revertants were screened on NA plates which allowed visualization of about 10^6 colonies individually. […], a test strain for frameshift mutation, together with TA98, was incubated with 1 mg/plate ICR191.

Data set [3] deals with MutaFish^1 carrying EGFP^mut1. In words: Genotoxicity test in transgenic zebrafish embryos, MutaFish^1. From the text: EGFP^mut plasmid constructed as described above was microinjected into one-cell stage fertilized eggs laid by the AB* zebrafish line (Oregon University, Corvallis, Oreg.) with transposase mRNA. The microinjected eggs were raised to sexual maturity and mated to wild type AB* zebrafish. Subsequently, the resulting embryos were screened for the presence of mCherry fluorescence in the heart. The screened embryos (hereinafter named as F1) were processed for RT-PCR, Western blotting and Southern blotting to verify the genomic integration of mutant EGFP. The F1 embryos were raised again to sexual maturity and mated to each other to generate F2 embryos homozygous for EGFP^mut. F3 embryos, generated by in-cross between F2 zebrafish, were raised again to sexual maturity.
Fertilized eggs were obtained by pair mating transgenic F3 female and nontransgenic male fish. We divided 24 hr embryos, still coated with chorion, into three groups (266 embryos/group) and exposed them for 30 min at 26° C. to 10 ml of 0, 2, or 5 mM ENU in 0.1% Instant Ocean salts (Senja Pharmaceutical, Hyogo, Japan). Mutagenized embryos were then rinsed and kept in a 28.5° C. incubator for three days. […] The pooled surviving larvae were checked for morphological abnormality and EGFP^+ larvae were selected and then scored by FACSAria (BD Biosciences).
We injected Tol2 plasmid encoding EGFP^mut and transposase mRNA into one-cell stage fertilized zebrafish eggs. F1 progeny with germline transmission were selected by PCR and Southern blot analysis as described in the Experimental Protocol.
To evaluate whether these transgenic fishes could detect mutations in vivo, 24 hr embryos obtained by pair mating the transgenic and nontransgenic fish were treated with mutagens for 30 min: MutaFish^1 with ENU (5 mM) and MutaFish^3 with ICR191 (10 mM). Three days after treatment, the number of EGFP^+ larvae was determined (Table 4).

In data set [4] the test system is CH4001 (TA100 carrying EGFP^mut1 on chromosome). Here is the method:
as §3
(§5) Subsequently, the gene for EGFP^mut was placed in the chromosome of relevant Salmonella typhimurium to establish mutation test strains analogous to that of Ames test. Linear DNA transformation method using λ Red system (Datsenko and Wanner, 2000) was employed to place the EGFP^mut genes at putAP sites (Elliott, 1992) in the wild type Salmonella chromosome, LT2. Then, each EGFP^mut1 and EGFP^mut3 gene was moved to TA100 and TA98 using generalized transducing phage, P22, resulting in a construction of CH 4001 and 4003.
as §4

For data set [5], the system named is CH4003 (TA98 carrying EGFP^mut3 on chromosome). The settings on record: for Number of revertants, EGFP^mut2 TA98, phenotype EGFP^+: total 10^6 bacteria plated on NA plates. Here is the method:
as §3, §5, §4

The test system of data set [6] is MutaFish^3 carrying EGFP^mut3. In words: Genotoxicity test in transgenic zebrafish embryos, MutaFish^3. It is filed as in vivo, zebrafish (Danio rerio). The method, then:
Almost all embryos were hatched during this incubation period.
One highly transgene-positive line was established.

[7] abbreviates: 0.1 mg/plate ENU, total 10^6 bacteria plated on minimal media plates.
The mark [8] stands for this setting: EGFP^mut1 MutaFish, 24 hr embryos, 5 mM ENU for 30 min, scored three days after treatment.

The source of these data is US8729334B2, “Method for determining genotoxicity using non-fluorescent proteins” (priority 2010, dated 2014).

SMILES strings stand for the structures. Read-outs that look alike come from different tables or passages of the source.

As for `CCN(N=O)C(N)=O` [ENU], in the data set on S. typhimurium TA100 (setting [7]), the “Number of revertants, TA100, phenotype His^+” value is on record as 5.6. The “frequency of His^+ revertants in TA100” value in the data set on S. typhimurium TA100 (0.1 mg/plate of ENU) was 5.6×10^−6. Further, the “Number of revertants, EGFP^mut2 TA98, phenotype His^+” value in data set [1] (0.1 mg/plate ENU) worked out at 3.5. For the same compound, the “Number of revertants, EGFP^mut1 TA100, phenotype His^+” value in data set [2] (setting [7]) stood at 5.2. In addition, the “frequency of His^+ revertants in CH4001” value in data set [2] (0.1 mg/plate of ENU) is on record as 5.2×10^−6. For the same compound, the “Number of revertants, TA98, phenotype His^+” value in the data set with S. typhimurium TA98 (0.1 mg/plate ENU) was 3.2. Further, in data set [3] (setting [8]), the “Morphological abnormality (%)” value is listed as 20.9% and the “Survival rate (%)” value is 97.3%. Further, in data set [3] (EGFP^mut1 MutaFish, EGFP^+ larvae, 5 mM ENU for 30 min, three days after treatment), the “Mutant frequency × 10^−5” value is given as 63 × 10^−5. The “frequency of EGFP^+ larvae” value in data set [3] (MutaFish^1, ENU 5 mM for 30 min, three days after treatment) was 6.3×10^−4. The “Number of revertants, EGFP^mut1 TA100, phenotype EGFP^+” value in data set [4] (0.1 mg/plate ENU, total 10^6 bacteria plated on NA plates) is 7.1. In addition, the “frequency of EGFP^+ reversion” value in data set [4] (in the presence of ENU (0.1 mg/plate), CH4001) is given as 7.1×10^−6. Moreover, in data set [5] (0.1 mg/plate ENU), the “Number of revertants, EGFP^mut2 TA98, phenotype EGFP^+” value is 3.2.
Consider `COc1ccc2nc3cc(Cl)ccc3c(NCCCNCCCl)c2c1` [ICR191], for which, in data set [6] (MutaFish^3, ICR191 10 mM for 30 min, three days after treatment), the “frequency of EGFP^+ larvae” value was 2.32×10^−3. Moreover, in data set [6] (zebrafish, in vivo), the “Morphological abnormality (%)” value worked out at 24.2%, the “Mutant frequency × 10^−5” value is reported as 232 × 10^−5 and the “Survival rate (%)” value was found to be 79.2%. Also, in data set [1] (1 mg/plate ICR191), the “mutation frequency of His^+ revertants in CH4003” value was 420.8×10^−6 and the “Number of revertants, EGFP^mut2 TA98, phenotype His^+” value was determined as 377.6. Further, in the data set with S. typhimurium TA98 (1 mg/plate ICR191), the “frequency of His^+ revertants in TA98” value is given as 327.6×10^−6 and the “Number of revertants, TA98, phenotype His^+” value was 420.8. Moreover, the “Number of revertants, EGFP^mut2 TA98, phenotype EGFP^+” value in data set [5] (1 mg/plate ICR191) was 456.3. Moreover, in data set [5] (in the presence of ICR191 (1 mg/plate), CH4003), the “frequency of EGFP^+ revertants” value is recorded as 456.3×10^−6.
